For the test, the target named is T1, dimethylarginine dimethylaminohydrolase (DDAH) (Pseudomonas aeruginosa, UniProt Q9I4E3).
T1 sequence (Q9I4E3 1-254): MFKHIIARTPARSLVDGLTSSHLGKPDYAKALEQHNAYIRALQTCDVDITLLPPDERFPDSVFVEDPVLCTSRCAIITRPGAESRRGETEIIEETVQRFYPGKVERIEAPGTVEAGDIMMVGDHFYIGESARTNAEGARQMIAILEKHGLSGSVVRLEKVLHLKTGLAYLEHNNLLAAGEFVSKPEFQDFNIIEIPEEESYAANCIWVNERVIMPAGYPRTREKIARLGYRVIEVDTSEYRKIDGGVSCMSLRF
Briefly: time-dependent inactivation kinetics. Format: biochemical. The settings on record: read-out: Ki.

`Cc1cc(Br)ccn1` [compound 1, 4-bromo-2-methylpyridine]: the KI (inactivation) worked out at 2600 ± 800 µM.
